According to paper PMC3381515 (Immunity, 2011):

Test system: TCR and CD8 on F5 T cells
Assay: Micropipette adhesion frequency assay, F5 T cells vs pMHC-coated RBCs
Format: binding, mouse
Settings: 32 NP68:H-2D^b/μm^2, BAPTA-AM 50 μM, PD98059 50 μM

**Q.** How did the “effect on two-stage kinetics / upregulated adhesion” value turn out when `CC(=O)OCOC(=O)CN(CC(=O)OCOC(C)=O)c1ccccc1OCCOc1ccccc1N(CC(=O)OCOC(C)=O)CC(=O)OCOC(C)=O` [BAPTA-AM] was run?
**A.** two-stage kinetics were unaffected
